Experiments:
human OCT2 = human OCT2 (Homo sapiens, UniProt O15244); conditions: inhibitor 1.5 mM
Procedure: (§1) (A) The expression of human OCT1, OCT2, or OCT3 was determined in the cell lines stably transfected with human OCTs (MDCK-hOCT1, HEK-hOCT2, or HEK-hOCT3) or the corresponding empty vectors (MOCK cells) by RT-PCR as described in Example 1. The dog and human GAPDH were used as the expression control for the transfected MDCK and HEK 293 cells, respectively. Lanes 1-6: MDCK-MOCK, MDCK-hOCT1, HEK-MOCK, HEK-hOCT2, HEK-MOCK, and HEK-hOCT3. (B) The cellular uptake of model substrates (TEA for human OCT1 and OCT2; MPP^+ for human OCT3) was determined in OCT-transfected cells (solid bars) and in the corresponding MOCK cells (open bars). Disopyramide (120 μM) was used as an inhibitor for human OCT1 and cimetidine (1.5 mM) was used as an inhibitor for human OCT2 and OCT3. Data are expressed as mean±SD of six measurements.
(§2) MDCK or HEK 293 cells were grown in 24-well plates to >90% confluence in the culture medium without any antibiotics. The poly-D-lysine coated plates were used for HEK 293 cells. The cells were washed with 1×PBS first and then incubated in the uptake buffer (1×PBS) containing 10 μM ^14C-TEA or 2 μM ^3H-MPP^+ as specified. For the OCT inhibitor studies, the indicated OCT inhibitor (i.e., disopyramide or cimetidine) was added to the uptake buffer at specified concentration together with the radioactive substrate. […]

human OCT3 = human OCT3 (Homo sapiens, UniProt O75751); conditions: inhibitor 1.5 mM
Procedure: as §1, §2

HEK-hOCT2 cells = assay: MTT drug sensitivity assay in HEK-hOCT2 cells; format: cell-based, human; conditions: same test conditions as oxaliplatin MTT assay in HEK cells
Procedure: (§3) Cytotoxicity of the platinum-based compounds was measured by MTT (thiazolyl blue tetrazolium bromide) assay. Cells were seeded in 100 μl of the culture medium without any antibiotics in 96-well plates at a predetermined cell density. For HEK 293 cells, poly-D-lysine coated plates were used. […] For the OCT inhibitor studies, the inhibitors (i.e., disopyramide or cimetidine) were added to the medium at a specified concentration immediately before the addition of the platinum-based compounds. After incubation for a specified time period, the drug-containing medium was replaced with fresh, drug-free medium and the incubation was continued for a total of 72 hours (start from the addition of platinum-based compounds). Then, the MTT assay was performed similarly as described in Alley et al., Cancer Res., 48:589-601 (1988). […] The maximal cell growth was the cell growth in the medium without any platinum-based compounds; C is the concentration of the platinum-based compound, and γ is the slope factor.
(§4) Briefly, the cells were seeded in 96-well plates at a density of 5,000 cells/well for the transfected MDCK cells or 12,000 cells/well for the transfected HEK 293 cells. The platinum-based drugs were added on the following day. After the specified time periods of drug exposure, the drug-containing medium was replaced with fresh, drug-free medium, and the incubation was continued for a total of 72 hours (start from the time when the drug was added). After incubation, the cell growth was determined by an MTT assay. Data are expressed as mean±SD from 3 to 6 independent experiments with each performed in quadruplicate. The resistance factor (RF) was defined as the ratio of the mean IC50 value in the MOCK cells to that in the OCT-transfected cells.

human OCT1 = target: T1, human OCT1 (Homo sapiens, UniProt O15245); assay: Cellular uptake of TEA in MDCK-hOCT1 cells, OCT inhibitor; format: cell-based, canine; conditions: inhibitor 120 μM
T1 construct: stably transfected with the full length human OCT1 cDNA (MDCK-hOCT1); expressed in transfected cells
T1 sequence (O15245 1-554): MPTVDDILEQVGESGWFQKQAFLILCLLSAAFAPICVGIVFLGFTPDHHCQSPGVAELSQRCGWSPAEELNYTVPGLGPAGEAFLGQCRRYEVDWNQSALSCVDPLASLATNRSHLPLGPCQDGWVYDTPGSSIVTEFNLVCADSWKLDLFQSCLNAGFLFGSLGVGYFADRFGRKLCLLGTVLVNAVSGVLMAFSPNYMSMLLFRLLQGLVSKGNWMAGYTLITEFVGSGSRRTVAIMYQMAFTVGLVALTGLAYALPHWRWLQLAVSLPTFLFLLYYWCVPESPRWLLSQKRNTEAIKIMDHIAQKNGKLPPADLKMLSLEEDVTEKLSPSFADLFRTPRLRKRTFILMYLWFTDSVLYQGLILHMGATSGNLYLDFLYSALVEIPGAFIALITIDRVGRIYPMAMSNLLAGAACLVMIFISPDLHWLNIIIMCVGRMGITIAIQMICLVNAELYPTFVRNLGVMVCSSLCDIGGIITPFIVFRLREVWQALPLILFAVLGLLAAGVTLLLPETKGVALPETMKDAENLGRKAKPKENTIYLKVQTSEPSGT
Procedure: as §1, §2

MDCK-hOCT1 cells = assay: MTT drug sensitivity assay in MDCK-hOCT1 cells; format: cell-based, canine; conditions: same test conditions as oxaliplatin MTT assay in MDCK cells
Procedure: as §3, §4
Briefly, MDCK cells were seeded at a density of 5,000 cells/well in 96-well plates and exposed to the test compounds for 7 hours on the following day. After incubation for a total of 72 hours, the cell growth was determined by an MTT assay. The data for carboplatin was taken from Table 1 and was not determined simultaneously with the other compounds. The resistance factor (RF) was defined as the ratio of the mean IC50 value in MDCK-MOCK cells to that in MDCK-hOCT1 cells. Data are expressed as mean±SD from six measurements, and each measurement was performed in quadruplicate.

Sequence of human OCT2 (O15244 whole entry): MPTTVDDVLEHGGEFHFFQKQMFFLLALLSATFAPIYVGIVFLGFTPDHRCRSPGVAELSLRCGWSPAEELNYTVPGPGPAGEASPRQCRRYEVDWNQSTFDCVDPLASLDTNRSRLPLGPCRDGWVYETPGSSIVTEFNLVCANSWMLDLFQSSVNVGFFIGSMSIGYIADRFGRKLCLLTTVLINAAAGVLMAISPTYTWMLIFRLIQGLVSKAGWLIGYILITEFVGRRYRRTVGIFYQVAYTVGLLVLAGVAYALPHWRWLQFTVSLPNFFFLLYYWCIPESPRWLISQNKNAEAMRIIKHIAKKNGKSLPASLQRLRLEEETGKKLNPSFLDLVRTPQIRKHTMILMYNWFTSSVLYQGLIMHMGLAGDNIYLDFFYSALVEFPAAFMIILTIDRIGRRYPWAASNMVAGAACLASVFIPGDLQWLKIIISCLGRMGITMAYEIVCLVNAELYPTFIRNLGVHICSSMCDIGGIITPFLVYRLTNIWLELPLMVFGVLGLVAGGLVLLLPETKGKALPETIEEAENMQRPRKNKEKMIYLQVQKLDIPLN
Sequence of human OCT3 (O75751 whole entry): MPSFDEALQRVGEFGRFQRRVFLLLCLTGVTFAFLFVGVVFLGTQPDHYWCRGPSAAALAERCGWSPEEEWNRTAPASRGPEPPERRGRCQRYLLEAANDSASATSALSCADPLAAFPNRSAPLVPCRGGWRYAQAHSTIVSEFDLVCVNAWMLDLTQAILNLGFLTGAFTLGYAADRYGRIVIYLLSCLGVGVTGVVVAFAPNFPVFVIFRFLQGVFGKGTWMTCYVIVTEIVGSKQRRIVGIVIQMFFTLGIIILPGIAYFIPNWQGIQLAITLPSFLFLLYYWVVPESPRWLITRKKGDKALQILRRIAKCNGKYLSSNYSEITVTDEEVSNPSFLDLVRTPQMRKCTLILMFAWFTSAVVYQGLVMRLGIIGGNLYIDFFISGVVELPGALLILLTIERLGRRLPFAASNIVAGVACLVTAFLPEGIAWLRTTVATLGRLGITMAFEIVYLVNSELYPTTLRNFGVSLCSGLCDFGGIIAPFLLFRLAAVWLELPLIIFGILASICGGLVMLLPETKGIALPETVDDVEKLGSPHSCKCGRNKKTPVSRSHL

Compound	effect on uptake of TEA in HEK-hOCT2 (human OCT2)	effect on uptake of MPP+ in HEK-hOCT3 (human OCT3)	cytotoxicity of the OCT inhibitor itself (no cytotoxicity up to a concentration of) (HEK-hOCT2 cells) [mM]	effect on uptake of TEA in MDCK-hOCT1 (human OCT1)	cytotoxicity of the OCT inhibitor itself (no cytotoxicity up to a concentration of) (MDCK-hOCT1 cells) [µM]
CN/C(=N/CCSCc1nc[nH]c1C)NC#N [cimetidine]	substantially decreased	substantially decreased	> 5		
CC(C)N(CCC(C(N)=O)(c1ccccc1)c1ccccn1)C(C)C (centres unmarked) [disopyramide]				substantially decreased	> 400

Source: patent US20100028259A1, “USE OF ORGANIC CATION TRANSPORTERS FOR CANCER DIAGNOSIS AND THERAPY” (The Regents of the University of California, priority 2006, published 2010)
